Columns and labels:
Test in all cases: KINOMEscan
Type in all cases: binding
Details in all cases: read-out: percent of control
[1] = target: MERTK (Homo sapiens (Human), UniProt Q12866)
Procedure: (§1) In vitro profiling of Compound I-2 (1 μM) was performed using the DiscoveRx KINOMEscan® platform.

[2] = target: MAP3K4 (Homo sapiens (Human), UniProt Q9Y6R4)
Procedure: as §1

[3] = target: ADCK3 (Homo sapiens (Human), UniProt Q8NI60)
Procedure: as §1

[4] = target: YSK1 (Homo sapiens (Human), UniProt O00506)
Procedure: as §1

[5] = target: TNK1 (Homo sapiens (Human), UniProt Q13470)
Procedure: as §1

[6] = target: EGFR(S752-I759del) (Homo sapiens (Human), UniProt P00533, DEL752-759)
Procedure: as §1

[7] = target: CDK8 (Homo sapiens (Human), UniProt P49336)
Procedure: as §1

[8] = target: EPHA1 (Homo sapiens (Human), UniProt P21709)
Procedure: as §1

[9] = target: ROCK2 (Homo sapiens (Human), UniProt O75116)
Procedure: as §1

[10] = target: MLK3 (Homo sapiens (Human), UniProt Q16584)
Procedure: as §1

[11] = target: PAK7 (Homo sapiens (Human), UniProt Q9P286)
Procedure: as §1

[12] = target: ABL1-nonphosphorylated (Homo sapiens (Human), UniProt P00519)
Procedure: as §1

[13] = target: MAP4K3 (Homo sapiens (Human), UniProt Q8IVH8)
Procedure: as §1

[14] = target: CDK7 (Homo sapiens (Human), UniProt P50613)
Procedure: as §1

[15] = target: EGFR (Homo sapiens (Human), UniProt P00533)
Procedure: as §1

[16] = target: CAMK1B (Homo sapiens (Human), UniProt Q6P2M8)
Procedure: as §1

[17] = target: SBK1 (Homo sapiens (Human), UniProt Q52WX2)
Procedure: as §1

[18] = target: MYLK2 (Homo sapiens (Human), UniProt Q9H1R3)
Procedure: as §1

[19] = target: CAMK2G (Homo sapiens (Human), UniProt Q13555)
Procedure: as §1

[20] = target: SNARK (Homo sapiens (Human), UniProt Q9H093)
Procedure: as §1

[21] = target: ANKK1 (Homo sapiens (Human), UniProt Q8NFD2)
Procedure: as §1

[22] = target: FES (Homo sapiens (Human), UniProt P07332)
Procedure: as §1

[23] = target: FGFR3 (G697C) (Homo sapiens (Human), UniProt P22607, G697C)
Procedure: as §1

[24] = target: VRK2 (Homo sapiens (Human), UniProt Q86Y07)
Procedure: as §1

[25] = target: STK16 (Homo sapiens (Human), UniProt O75716)
Procedure: as §1

[26] = target: PIK3CA(1800L) (Homo sapiens (Human), UniProt P42336, I800L)
Procedure: as §1

[27] = target: RSK3 (Kin.Dom.1-N-terminal) (Homo sapiens (Human), UniProt Q15349)
Procedure: as §1

[28] = target: TRKC (Homo sapiens (Human), UniProt Q16288)
Procedure: as §1

[29] = target: IGF1R (Homo sapiens (Human), UniProt P08069)
Procedure: as §1

[30] = target: DYRK1B (Homo sapiens (Human), UniProt Q9Y463)
Procedure: as §1

[31] = target: IKK-alpha (Homo sapiens (Human), UniProt O15111)
Procedure: as §1

[32] = target: GRK3 (Homo sapiens (Human), UniProt P35626)
Procedure: as §1

[33] = target: BMPR1B (Homo sapiens (Human), UniProt O00238)
Procedure: as §1

[34] = target: MKK7 (Homo sapiens (Human), UniProt O14733)
Procedure: as §1

[35] = target: TTK (Homo sapiens (Human), UniProt P33981)
Procedure: as §1

[36] = target: PRKD1 (Homo sapiens (Human), UniProt Q15139)
Procedure: as §1

[37] = target: EGFR(T790M) (Homo sapiens (Human), UniProt P00533, T790M)
Procedure: as §1

[38] = target: HIPK2 (Homo sapiens (Human), UniProt Q9H2X6)
Procedure: as §1

[39] = target: NEK3 (Homo sapiens (Human), UniProt P51956)
Procedure: as §1

Sequence of PRKD1 (Q15139 whole entry): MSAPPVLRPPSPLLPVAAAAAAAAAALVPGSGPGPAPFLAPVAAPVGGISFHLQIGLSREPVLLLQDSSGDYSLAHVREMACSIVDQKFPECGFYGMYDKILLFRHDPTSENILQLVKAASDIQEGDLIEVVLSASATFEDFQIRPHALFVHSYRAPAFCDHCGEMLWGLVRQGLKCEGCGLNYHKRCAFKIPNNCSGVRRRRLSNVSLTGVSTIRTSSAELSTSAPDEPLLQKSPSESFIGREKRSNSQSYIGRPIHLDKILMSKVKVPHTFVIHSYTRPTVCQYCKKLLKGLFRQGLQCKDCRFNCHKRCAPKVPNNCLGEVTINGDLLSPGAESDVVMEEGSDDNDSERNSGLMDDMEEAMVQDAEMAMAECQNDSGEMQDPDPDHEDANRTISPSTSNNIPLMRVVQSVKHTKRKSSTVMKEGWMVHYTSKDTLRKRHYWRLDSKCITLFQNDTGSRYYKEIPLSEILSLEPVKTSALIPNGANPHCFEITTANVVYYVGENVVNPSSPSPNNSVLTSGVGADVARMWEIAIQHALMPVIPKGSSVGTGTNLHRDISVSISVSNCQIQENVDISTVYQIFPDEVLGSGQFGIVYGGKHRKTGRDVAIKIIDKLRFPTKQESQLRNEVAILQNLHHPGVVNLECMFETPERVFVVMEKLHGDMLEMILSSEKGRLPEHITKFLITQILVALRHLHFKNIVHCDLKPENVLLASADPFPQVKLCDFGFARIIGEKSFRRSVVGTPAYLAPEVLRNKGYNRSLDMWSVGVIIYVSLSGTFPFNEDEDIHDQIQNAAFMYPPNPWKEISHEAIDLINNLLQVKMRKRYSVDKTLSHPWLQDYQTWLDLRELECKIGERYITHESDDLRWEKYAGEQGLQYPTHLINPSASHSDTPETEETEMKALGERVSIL
Sequence of NEK3 (P51956 whole entry): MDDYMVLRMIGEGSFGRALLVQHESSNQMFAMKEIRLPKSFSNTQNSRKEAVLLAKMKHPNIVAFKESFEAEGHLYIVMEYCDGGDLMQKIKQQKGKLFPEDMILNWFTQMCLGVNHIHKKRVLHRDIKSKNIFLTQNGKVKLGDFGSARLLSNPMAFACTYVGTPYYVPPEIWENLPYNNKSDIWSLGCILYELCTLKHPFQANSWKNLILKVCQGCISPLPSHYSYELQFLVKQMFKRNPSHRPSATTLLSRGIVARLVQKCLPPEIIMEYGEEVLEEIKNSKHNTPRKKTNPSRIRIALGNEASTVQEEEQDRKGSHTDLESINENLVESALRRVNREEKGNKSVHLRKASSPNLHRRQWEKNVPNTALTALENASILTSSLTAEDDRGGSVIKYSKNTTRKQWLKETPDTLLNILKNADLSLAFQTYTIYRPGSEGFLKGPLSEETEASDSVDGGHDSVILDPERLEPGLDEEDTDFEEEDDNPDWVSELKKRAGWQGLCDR
Sequence of CDK7 (P50613 whole entry): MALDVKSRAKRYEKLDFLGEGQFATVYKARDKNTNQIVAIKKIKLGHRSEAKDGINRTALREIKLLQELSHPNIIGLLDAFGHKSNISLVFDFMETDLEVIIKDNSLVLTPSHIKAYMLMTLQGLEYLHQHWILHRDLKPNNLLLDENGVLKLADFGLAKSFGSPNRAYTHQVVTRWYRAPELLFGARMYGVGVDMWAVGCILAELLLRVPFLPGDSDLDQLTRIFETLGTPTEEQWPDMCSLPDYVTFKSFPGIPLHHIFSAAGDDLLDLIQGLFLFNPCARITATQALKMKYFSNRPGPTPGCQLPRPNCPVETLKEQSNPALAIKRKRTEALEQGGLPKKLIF
Sequence of VRK2 (Q86Y07 whole entry): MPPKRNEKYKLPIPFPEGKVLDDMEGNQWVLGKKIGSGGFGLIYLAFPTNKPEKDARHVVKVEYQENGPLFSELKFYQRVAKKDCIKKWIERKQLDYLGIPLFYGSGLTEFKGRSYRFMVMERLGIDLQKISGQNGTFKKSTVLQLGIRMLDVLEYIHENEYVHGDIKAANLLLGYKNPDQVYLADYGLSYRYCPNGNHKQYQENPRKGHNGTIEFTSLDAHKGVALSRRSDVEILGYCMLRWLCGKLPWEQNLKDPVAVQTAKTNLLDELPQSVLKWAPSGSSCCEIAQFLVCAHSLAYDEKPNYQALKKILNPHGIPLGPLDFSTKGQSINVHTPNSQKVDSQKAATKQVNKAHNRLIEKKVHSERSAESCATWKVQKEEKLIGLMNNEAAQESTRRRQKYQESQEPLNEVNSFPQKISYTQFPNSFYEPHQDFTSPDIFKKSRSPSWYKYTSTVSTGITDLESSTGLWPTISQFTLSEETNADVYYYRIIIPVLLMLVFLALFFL
Sequence of MAP3K4 (Q9Y6R4 whole entry): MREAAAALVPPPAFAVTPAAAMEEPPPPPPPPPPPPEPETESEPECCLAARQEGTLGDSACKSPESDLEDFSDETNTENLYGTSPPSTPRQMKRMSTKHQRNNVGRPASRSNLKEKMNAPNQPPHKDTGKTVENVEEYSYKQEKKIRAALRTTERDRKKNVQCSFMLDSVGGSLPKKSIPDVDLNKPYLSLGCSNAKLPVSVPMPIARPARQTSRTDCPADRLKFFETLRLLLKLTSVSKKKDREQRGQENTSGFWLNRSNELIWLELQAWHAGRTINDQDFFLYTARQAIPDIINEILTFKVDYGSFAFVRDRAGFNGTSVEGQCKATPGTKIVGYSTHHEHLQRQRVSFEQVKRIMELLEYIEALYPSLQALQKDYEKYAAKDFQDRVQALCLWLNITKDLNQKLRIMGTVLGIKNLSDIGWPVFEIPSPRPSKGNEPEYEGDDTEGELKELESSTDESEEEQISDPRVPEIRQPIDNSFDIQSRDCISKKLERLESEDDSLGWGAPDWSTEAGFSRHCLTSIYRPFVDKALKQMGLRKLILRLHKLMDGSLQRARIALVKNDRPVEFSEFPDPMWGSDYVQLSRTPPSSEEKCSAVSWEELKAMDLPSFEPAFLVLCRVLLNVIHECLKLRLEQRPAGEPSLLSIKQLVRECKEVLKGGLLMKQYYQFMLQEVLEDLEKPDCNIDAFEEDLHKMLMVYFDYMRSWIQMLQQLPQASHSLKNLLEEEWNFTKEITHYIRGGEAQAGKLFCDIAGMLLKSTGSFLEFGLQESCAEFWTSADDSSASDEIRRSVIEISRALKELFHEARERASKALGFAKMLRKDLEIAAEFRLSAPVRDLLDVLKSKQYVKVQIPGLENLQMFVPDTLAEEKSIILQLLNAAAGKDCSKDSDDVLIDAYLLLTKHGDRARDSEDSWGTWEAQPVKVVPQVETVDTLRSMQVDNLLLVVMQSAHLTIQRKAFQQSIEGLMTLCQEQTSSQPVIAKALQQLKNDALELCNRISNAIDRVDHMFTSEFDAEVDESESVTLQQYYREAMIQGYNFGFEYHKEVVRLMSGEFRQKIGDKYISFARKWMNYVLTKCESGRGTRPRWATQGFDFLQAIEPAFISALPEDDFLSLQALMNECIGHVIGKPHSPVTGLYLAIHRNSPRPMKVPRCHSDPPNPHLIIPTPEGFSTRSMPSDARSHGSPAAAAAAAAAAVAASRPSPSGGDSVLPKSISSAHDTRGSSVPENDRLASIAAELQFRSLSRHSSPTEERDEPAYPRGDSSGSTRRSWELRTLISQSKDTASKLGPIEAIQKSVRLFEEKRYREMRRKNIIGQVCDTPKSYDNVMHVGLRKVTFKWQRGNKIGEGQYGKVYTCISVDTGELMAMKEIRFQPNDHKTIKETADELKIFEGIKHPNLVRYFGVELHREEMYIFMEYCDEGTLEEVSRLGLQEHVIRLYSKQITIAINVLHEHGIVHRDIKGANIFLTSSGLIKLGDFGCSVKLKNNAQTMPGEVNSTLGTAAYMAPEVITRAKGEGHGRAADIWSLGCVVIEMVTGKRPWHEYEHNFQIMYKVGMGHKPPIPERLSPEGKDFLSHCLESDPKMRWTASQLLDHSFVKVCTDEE
Sequence of IKK-alpha (O15111 whole entry): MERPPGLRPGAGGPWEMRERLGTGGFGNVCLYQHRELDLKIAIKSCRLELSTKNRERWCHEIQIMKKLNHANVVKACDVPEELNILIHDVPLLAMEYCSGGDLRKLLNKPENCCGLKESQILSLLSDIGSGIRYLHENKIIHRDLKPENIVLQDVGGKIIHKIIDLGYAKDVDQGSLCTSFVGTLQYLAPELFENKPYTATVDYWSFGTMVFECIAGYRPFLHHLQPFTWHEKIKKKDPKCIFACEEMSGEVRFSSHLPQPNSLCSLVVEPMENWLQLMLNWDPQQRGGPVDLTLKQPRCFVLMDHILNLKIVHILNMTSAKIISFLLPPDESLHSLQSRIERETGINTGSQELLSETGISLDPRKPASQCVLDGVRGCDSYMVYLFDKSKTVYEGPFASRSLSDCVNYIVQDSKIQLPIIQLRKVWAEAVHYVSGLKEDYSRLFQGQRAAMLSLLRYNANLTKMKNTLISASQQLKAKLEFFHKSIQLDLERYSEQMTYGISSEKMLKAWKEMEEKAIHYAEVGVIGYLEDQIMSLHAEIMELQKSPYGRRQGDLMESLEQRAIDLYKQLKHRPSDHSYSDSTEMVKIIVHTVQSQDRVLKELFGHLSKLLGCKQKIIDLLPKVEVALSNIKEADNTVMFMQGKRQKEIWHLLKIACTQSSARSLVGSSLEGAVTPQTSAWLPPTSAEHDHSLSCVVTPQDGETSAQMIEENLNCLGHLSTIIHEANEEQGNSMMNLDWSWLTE
Sequence of YSK1 (O00506 whole entry): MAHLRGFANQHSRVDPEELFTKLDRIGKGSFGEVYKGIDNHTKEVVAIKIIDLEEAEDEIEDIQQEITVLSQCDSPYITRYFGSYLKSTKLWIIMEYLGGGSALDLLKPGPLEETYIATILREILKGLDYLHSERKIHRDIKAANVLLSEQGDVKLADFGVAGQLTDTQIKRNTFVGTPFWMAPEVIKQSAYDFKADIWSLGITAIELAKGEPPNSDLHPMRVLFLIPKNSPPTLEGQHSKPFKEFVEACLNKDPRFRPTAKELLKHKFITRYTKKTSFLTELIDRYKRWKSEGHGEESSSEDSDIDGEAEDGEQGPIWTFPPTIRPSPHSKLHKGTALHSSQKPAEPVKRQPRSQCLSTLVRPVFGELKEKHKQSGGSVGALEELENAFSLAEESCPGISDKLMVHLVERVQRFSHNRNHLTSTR

Row | Compound | remaining binding at 1 µM [1] | remaining binding at 1 µM [2] | remaining binding at 1 µM [3] | remaining binding at 1 µM [4] | remaining binding at 1 µM [5] | remaining binding at 1 µM [6] | remaining binding at 1 µM [7] | remaining binding at 1 µM [8] | remaining binding at 1 µM [9] | remaining binding at 1 µM [10] | remaining binding at 1 µM [11] | remaining binding at 1 µM [12] | remaining binding at 1 µM [13] | remaining binding at 1 µM [14] | remaining binding at 1 µM [15] | remaining binding at 1 µM [16] | remaining binding at 1 µM [17] | remaining binding at 1 µM [18] | remaining binding at 1 µM [19] | remaining binding at 1 µM [20] | further results
1 | CCN1CCN(Cc2cc(NC(=O)c3ccc(C)c(-c4ccc5nc(NC(=O)C6CC6)cn5n4)c3)cc(C(F)(F)F)c2)CC1 [Compound I-2, 3-(2-(cyclopropanecarboxamido)imidazo[1,2-b]pyridazin-6-yl)-N-(3-((4-ethylpiperazin-1-yl)methyl)-5-(trifluoromethyl)phenyl)-4-methylbenzamide] | 0.25% | 89% | 97% | 61% | 63% | 80% | 4.8% | 44% | 82% | 76% | 73% | 0% | 3.4% | 0.55% | 31% | 49% | 99% | 92% | 94% | 100% | remaining binding at 1 µM [21]: 100%; remaining binding at 1 µM [22]: 12%; remaining binding at 1 µM [23]: 87%; remaining binding at 1 µM [24]: 88%; remaining binding at 1 µM [25]: 90%; remaining binding at 1 µM [26]: 100%; remaining binding at 1 µM [27]: 100%; remaining binding at 1 µM [28]: 0.05%; remaining binding at 1 µM [29]: 0.7%; remaining binding at 1 µM [30]: 62%; remaining binding at 1 µM [31]: 53%; remaining binding at 1 µM [32]: 87%; remaining binding at 1 µM [33]: 84%; remaining binding at 1 µM [34]: 84%; remaining binding at 1 µM [35]: 83%; remaining binding at 1 µM [36]: 93%; remaining binding at 1 µM [37]: 15%; remaining binding at 1 µM [38]: 93%; remaining binding at 1 µM [39]: 100%
2 | CCN1CCN(Cc2cc(NC(=O)c3ccc(C)c(-c4ccc5nc(NC(=O)C6CC6)cn5c4)c3)cc(C(F)(F)F)c2)CC1 [Compound I-6, 3-(2-(cyclopropanecarboxamido)imidazo[1,2-a]pyridin-6-yl)-N-(3-((4-ethylpiperazin-1-yl)methyl)-5-(trifluoromethyl)phenyl)-4-methylbenzamide] | 0.25% | 81% | 96% | 100% | 31% | 65% | 3% | 38% | 94% | 82% | 98% | 0.1% | 19% | 1% | 24% | 97% | 97% | 83% | 95% | 100% | remaining binding at 1 µM [21]: 100%; remaining binding at 1 µM [22]: 0.95%; remaining binding at 1 µM [23]: 69%; remaining binding at 1 µM [24]: 92%; remaining binding at 1 µM [25]: 95%; remaining binding at 1 µM [26]: 91%; remaining binding at 1 µM [27]: 95%; remaining binding at 1 µM [28]: 0.05%; remaining binding at 1 µM [29]: 11%; remaining binding at 1 µM [30]: 87%; remaining binding at 1 µM [31]: 63%; remaining binding at 1 µM [32]: 90%; remaining binding at 1 µM [33]: 86%; remaining binding at 1 µM [34]: 100%; remaining binding at 1 µM [35]: 83%; remaining binding at 1 µM [36]: 87%; remaining binding at 1 µM [37]: 15%; remaining binding at 1 µM [38]: 94%; remaining binding at 1 µM [39]: 96%
